Test results from US12344597B2, “Alkoxy-substituted pyridinyl derivatives as LPA1 receptor antagonists and their use in the treatment of fibrosis” (IDORSIA PHARMACEUTICALS LTD, priority 2018, dated 2025).
pIC50: −log10 of the molar value. Where a name gives a salt, the structure may show the parent alone.

Biological target: human LPA1 receptor (Homo sapiens (Human), UniProt Q92633)
Assay: Beta-arrestin recruitment assay to determine IC50 values for human LPAR1
Assay type: cell-based
Details: antagonist mode, Tango EDG2-bla U2OS cells, LPA 18:1 500 nM final
Summary of the method: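 Tango EDG2-bla U2OS cells: LPA-driven beta-arrestin/TEV protease recruitment releases Gal4-VP16, inducing beta-lactamase reporter read with live-cell substrate. Cells seeded 20 h at 37 °C beforehand. IC50 is antagonist concentration inhibiting 50% of maximal response.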

Chain of human LPA1 receptor (Q92633 whole entry): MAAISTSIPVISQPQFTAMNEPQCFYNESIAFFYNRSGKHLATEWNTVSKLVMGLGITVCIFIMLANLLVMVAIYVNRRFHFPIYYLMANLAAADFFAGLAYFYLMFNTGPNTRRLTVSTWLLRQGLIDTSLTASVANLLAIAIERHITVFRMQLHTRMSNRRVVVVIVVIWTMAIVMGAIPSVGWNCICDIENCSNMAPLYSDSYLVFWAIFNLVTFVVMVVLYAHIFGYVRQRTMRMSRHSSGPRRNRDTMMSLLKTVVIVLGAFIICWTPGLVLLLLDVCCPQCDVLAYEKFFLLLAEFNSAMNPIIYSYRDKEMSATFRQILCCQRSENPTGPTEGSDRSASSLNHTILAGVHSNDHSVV

| pIC50 | SMILES |
| --- | --- |
| 8.30 | Cc1ccc(NC(=O)C2(c3ccccc3C3CCCC3)CN(C(=O)CC(C)(C)C(=O)O)C2)c(OC(F)F)n1 [Ex 31-3, 4-(3-(2-cyclopentylphenyl)-3-((2-(difluoromethoxy)-6-methylpyridin-3-yl)carbamoyl)azetidin-1-yl)-2,2-dimethyl-4-oxobutanoic acid] |
| 7.39 | Cc1ccc(NC(=O)C2(c3ccccc3C(C)C)CN(Cc3ncco3)C2)c(OC(F)F)n1 [Ex 11-47, N-(2-(difluoromethoxy)-6-methylpyridin-3-yl)-3-(2-isopropylphenyl)-1-(oxazol-2-ylmethyl)azetidine-3-carboxamide] |
| 6.69 | Cc1ccc(NC(=O)C2(c3ccccc3C(C)C)CN(C(=O)CC3CCN(CCF)CC3)C2)c(OC(F)F)n1 [Ex 12-141, N-(2-(difluoromethoxy)-6-methylpyridin-3-yl)-1-(2-(1-(2-fluoroethyl)piperidin-4-yl)acetyl)-3-(2-isopropylphenyl)azetidine-3-carboxamide] |
| 7.13 | COC(=O)COC(=O)N1CC(C(=O)Nc2ncc(C)cc2OC(F)F)(c2ccccc2C(C)C)C1 [Ex 83-1, 2-methoxy-2-oxoethyl 3-((3-(difluoromethoxy)-5-methylpyridin-2-yl)carbamoyl)-3-(2-isopropylphenyl)azetidine-1-carboxylate] |
| 8.70 | Cc1ccc(NC(=O)C2(c3ccccc3C(C)C)CN(c3ccncc3F)C2)c(OC(F)F)n1 [Ex 18-19, N-(2-(difluoromethoxy)-6-methylpyridin-3-yl)-1-(3-fluoropyridin-4-yl)-3-(2-isopropylphenyl)azetidine-3-carboxamide] |
| 7.08 | COc1ccc(NC(=O)C2(c3ccccc3C(C)C)CNC2)c(OC)n1 [Ex 6, N-(2,6-dimethoxypyridin-3-yl)-3-(2-isopropylphenyl)azetidine-3-carboxamide hydrochloride] |
| 7.82 | Cc1ccc(NC(=O)C2(c3ccccc3C(C)C)CN(C(=O)CCCC#N)C2)c(OC(F)F)n1 [Ex 12-1, 1-(4-cyanobutanoyl)-N-(2-(difluoromethoxy)-6-methylpyridin-3-yl)-3-(2-isopropylphenyl)azetidine-3-carboxamide] |
| 8.22 | Cc1ccc(NC(=O)C2(c3ccccc3C(C)C)CCN(C(=O)OCC(=O)O)CC2)c(OC(F)F)n1 [Ex 14-3, 2-((4-((2-(difluoromethoxy)-6-methylpyridin-3-yl)carbamoyl)-4-(2-isopropylphenyl)piperidine-1-carbonyl)oxy)acetic acid] |
| 7.80 | Cc1ccc(NC(=O)C2(c3ccccc3C(C)C)CN(S(=O)(=O)CC3(C(=O)O)COC3)C2)c(OC(F)F)n1 [Ex 13-16, 3-(((3-((2-(difluoromethoxy)-6-methylpyridin-3-yl)carbamoyl)-3-(2-isopropylphenyl)azetidin-1-yl)sulfonyl)methyl)oxetane-3-carboxylic acid] |
| 7.39 | CC(C)c1ccccc1C1(C(=O)Nc2cc(F)cnc2OC(F)F)CN(C(=O)CC(C)(C)C(=O)O)C1 [Ex 12-87, 4-(3-((2-(difluoromethoxy)-5-fluoropyridin-3-yl)carbamoyl)-3-(2-isopropylphenyl)azetidin-1-yl)-2,2-dimethyl-4-oxobutanoic acid] |
| 6.44 | COC(=O)C(C)(C)CS(=O)(=O)N1CC(C(=O)Nc2ccc(C)nc2OC(F)F)(c2ccccc2C(C)C)C1 [Ex 13-11, methyl 3-((3-((2-(difluoromethoxy)-6-methylpyridin-3-yl)carbamoyl)-3-(2-isopropylphenyl)azetidin-1-yl)sulfonyl)-2,2-dimethylpropanoate] |
| 7.92 | COC(=O)CCCN1CC(C(=O)Nc2ccc(C)nc2OC(F)F)(c2ccccc2C(C)C)C1 [Ex 11-28, methyl 4-(3-((2-(difluoromethoxy)-6-methylpyridin-3-yl)carbamoyl)-3-(2-isopropylphenyl)azetidin-1-yl)butanoate] |
| 8.22 | Cc1ccc(NC(=O)C2(c3ccccc3C(C)C)CN(C3COC3)C2)c(OC(F)F)n1 [Ex 11-20, N-(2-(difluoromethoxy)-6-methylpyridin-3-yl)-3-(2-isopropylphenyl)-1-(oxetan-3-yl)azetidine-3-carboxamide] |
| 7.32 | Cc1ccc(NC(=O)C2(c3ccccc3C(C)C)CN(CC(C)(C)CO)C2)c(OC(F)F)n1 [Ex 11-17, N-(2-(difluoromethoxy)-6-methylpyridin-3-yl)-1-(3-hydroxy-2,2-dimethylpropyl)-3-(2-isopropylphenyl)azetidine-3-carboxamide] |
| 7.77 | CC(C)c1ccccc1C1(C(=O)Nc2ncc(Cl)cc2OC(F)F)CN(CCC(C)(C)C(=O)O)C1 [Ex 78-2, 4-(3-((5-chloro-3-(difluoromethoxy)pyridin-2-yl)carbamoyl)-3-(2-isopropylphenyl)azetidin-1-yl)-2,2-dimethylbutanoic acid] |
| 6.49 | COC(=O)CC1(CN2CC(C(=O)Nc3ccc(C)nc3OC(F)F)(c3ccccc3C(C)C)C2)CC1 [Ex 11-67, Methyl 2-(1-((3-((2-(difluoromethoxy)-6-methylpyridin-3-yl)carbamoyl)-3-(2-isopropylphenyl)azetidin-1-yl)methyl)cyclopropyl)acetate] |

| pIC50 | SMILES |
| --- | --- |
| 7.70 | Cc1ccc(NC(=O)C2(c3ccccc3C(C)C)CN(CC(C)(C)C(=O)O)C2)c(OC(F)F)n1 [Ex 11-25, 3-(3-((2-(difluoromethoxy)-6-methylpyridin-3-yl)carbamoyl)-3-(2-isopropylphenyl)azetidin-1-yl)-2,2-dimethylpropanoic acid] |
| 7.33 | Cc1ccc(NC(=O)C2(c3ccccc3C(C)C)CN(c3nccc(C(=O)O)n3)C2)c(OC(F)F)n1 [Ex 18-15, 2-(3-((2-(difluoromethoxy)-6-methylpyridin-3-yl)carbamoyl)-3-(2-isopropylphenyl)azetidin-1-yl)pyrimidine-4-carboxylic acid] |
| 7.35 | CNC[C@H](O)CN1CC(C(=O)Nc2ccc(C)nc2OC(F)F)(c2ccccc2C(C)C)C1 [Ex 11-84, (S)-N-(2-(difluoromethoxy)-6-methylpyridin-3-yl)-1-(2-hydroxy-3-(methylamino)propyl)-3-(2-isopropylphenyl)azetidine-3-carboxamide] |
| 7.51 | COC(=O)c1cnc(N2CC(C(=O)Nc3ccc(C)nc3OC(F)F)(c3ccccc3C(C)C)C2)nc1 [Ex 18-4, methyl 2-(3-((2-(difluoromethoxy)-6-methylpyridin-3-yl)carbamoyl)-3-(2-isopropylphenyl)azetidin-1-yl)pyrimidine-5-carboxylate] |
| 8.05 | Cc1ccc(NC(=O)C2(c3ccccc3C(C)C)CCN(C(=O)NCCO)CC2)c(OC(F)F)n1 [Ex 17-22, N4-(2-(difluoromethoxy)-6-methylpyridin-3-yl)-N1-(2-hydroxyethyl)-4-(2-isopropylphenyl)piperidine-1,4-dicarboxamide] |
| 7.29 | Cc1ccc(NC(=O)C2(c3ccccc3C(C)C)CN(C(=O)CC3CCC(C(=O)O)CC3)C2)c(OC(F)F)n1 (stereo not shown) [Ex 52, 4-(2-(3-((2-(difluoromethoxy)-6-methylpyridin-3-yl)carbamoyl)-3-(2-isopropylphenyl)azetidin-1-yl)-2-oxoethyl)cyclohexane-1-carboxylic acid] |
| 8.30 | Cc1ccc(NC(=O)C2(c3ccccc3C(C)C)CN(CC(C)N)C2)c(OC(F)F)n1 (stereo not shown) [Ex 11-11, 1-(2-aminopropyl)-N-(2-(difluoromethoxy)-6-methylpyridin-3-yl)-3-(2-isopropylphenyl)azetidine-3-carboxamide] |
| 6.51 | Cc1ccc(NC(=O)C2(c3ccccc3C(C)C)CN(C(=O)CCOCCOCC(=O)O)C2)c(OC(F)F)n1 [Ex 12-121, 2-(2-(3-(3-((2-(difluoromethoxy)-6-methylpyridin-3-yl)carbamoyl)-3-(2-isopropylphenyl)azetidin-1-yl)-3-oxopropoxy)ethoxy)acetic acid] |
| 7.35 | COC(=O)C1(CN2CC(C(=O)Nc3ccc(C)nc3OC(F)F)(c3ccccc3C(C)C)C2)COC1 [Ex 11-90, methyl 3-((3-((2-(difluoromethoxy)-6-methylpyridin-3-yl)carbamoyl)-3-(2-isopropylphenyl)azetidin-1-yl)methyl)oxetane-3-carboxylate] |
| 8.70 | CC(C)c1ccccc1C1(C(=O)Nc2ncc(Br)cc2OC(F)F)CN(S(N)(=O)=O)C1 [Ex 81-4, N-(5-bromo-3-(difluoromethoxy)pyridin-2-yl)-3-(2-isopropylphenyl)-1-sulfamoylazetidine-3-carboxamide] |
| 8.52 | CC(C)c1ccccc1C1(C(=O)Nc2ncc(Cl)cc2OC(F)F)CN(C(=O)NC2CC2)C1 [Ex 82-1, N3-(5-chloro-3-(difluoromethoxy)pyridin-2-yl)-N1-cyclopropyl-3-(2-isopropylphenyl)azetidine-1,3-dicarboxamide] |
| 7.66 | Cc1ccc(NC(=O)C2(c3ccccc3C(C)C)CN(CC(=O)O)C2)c(OC(F)F)n1 [Ex 11-12, 2-(3-((2-(difluoromethoxy)-6-methylpyridin-3-yl)carbamoyl)-3-(2-isopropylphenyl)azetidin-1-yl)acetic acid] |
| 6.57 | Cc1ccc(NC(=O)C2(c3ccccc3C(C)C)CN(Cc3c[nH]nc3C(=O)O)C2)c(OC(F)F)n1 [Ex 11-38, 4-((3-((2-(difluoromethoxy)-6-methylpyridin-3-yl)carbamoyl)-3-(2-isopropylphenyl)azetidin-1-yl)methyl)-1H-pyrazole-3-carboxylic acid] |
| 8.00 | Cc1ccc(NC(=O)C2(c3cc(F)ccc3C(C)C)CN(C(=O)CC(C)(C)C(=O)O)C2)c(OC(F)F)n1 [Ex 39-5, 4-(3-((2-(difluoromethoxy)-6-methylpyridin-3-yl)carbamoyl)-3-(5-fluoro-2-isopropylphenyl)azetidin-1-yl)-2,2-dimethyl-4-oxobutanoic acid] |
| 8.15 | C=C(CC(=O)O)C(=O)N1CC(C(=O)Nc2ccc(C)nc2OC(F)F)(c2ccccc2C(C)C)C1 [Ex 12-93, 3-(3-((2-(difluoromethoxy)-6-methylpyridin-3-yl)carbamoyl)-3-(2-isopropylphenyl)azetidine-1-carbonyl)but-3-enoic acid] |
